Patent US4233445A, “7-(Substituted)-7H-pyrrolo[3.2-F]-quinazoline-1,3-diamines” (American Home Products Corporation, priority 1979, dated 1980)
≈ marks a conversion by molar mass, not a printed value.

How the values were obtained:
K. pneumoniae 10031 = assay: In vitro antibacterial activity (MIC), K. pneumoniae 10031; format: cell-based; conditions: agar dilution, 18 hours at 35° C.
Procedure: (§1) The compounds have shown activity in vitro against one or more of the following strains of bacteria: S. aureus Smith, S. aureus 53-180, N. catarrhalis 8193, E. coli 9637, S. paratyphi 11737, K. pneumoniae 10031, or P. vulgaris 6896.
(§2) A stock solution or suspension of the test compound at a concentration of 2500 μg/ml. is prepared utilizing a suitable solvent or medium such as aqueous sodium hydroxide, aqueous lactic acid, methyl cellosolve, dimethylsulfoxide, dimethylacetamide, ethylene glycol, dimethylformamide, formamide, propylene glycol, acetone or methanol. Two-fold dilutions are made by adding appropriate amounts of sterile water to the solution or suspension of the test substance. One ml. quantities of each dilution are incorporated into Wellcotest Sensitivity Test Agar fortified with 5% hemolyzed horse blood (9 ml. vol.) in sterile Petri dishes to give plates containing varying concentrations of the test compound. The hardened surfaces of each plate are incubated with the test organism, and the plates are incubated for 18 hours at 35° C.

P. vulgaris 6896 = assay: In vitro antibacterial activity (MIC), P. vulgaris 6896; format: cell-based; conditions: agar dilution, 18 hours at 35° C.
Procedure: as §1, §2

S. aureus Smith = assay: In vitro antibacterial activity (MIC), S. aureus Smith; format: cell-based; conditions: agar dilution, 18 hours at 35° C.
Procedure: as §1, §2

N. catarrhalis 8193 = assay: In vitro antibacterial activity (MIC), N. catarrhalis 8193; format: cell-based; conditions: agar dilution, 18 hours at 35° C.
Procedure: as §1, §2

E. coli 9637 = assay: In vitro antibacterial activity (MIC), E. coli 9637; format: cell-based; conditions: agar dilution, 18 hours at 35° C.
Procedure: as §1, §2

S. paratyphi 11737 = assay: In vitro antibacterial activity (MIC), S. paratyphi 11737; format: cell-based; conditions: agar dilution, 18 hours at 35° C.
Procedure: as §1, §2

S. aureus 53-180 = assay: In vitro antibacterial activity (MIC), S. aureus 53-180; format: cell-based; conditions: agar dilution, 18 hours at 35° C.
Procedure: as §1, §2

Escherichia coli (E-3) = assay: In vivo antibacterial synergism (mouse), Escherichia coli (E-3); set-up: species or system Mice (male, CD-1 strain); conditions: p.o., at time of infection, Cpd. dose in combination with SM, 20160 min
Procedure: (§3) The test agent is weighed, suspended in 0.5% aqueous carboxymethyl cellulose, hemogenized (glass tissue grinder) and diluted according to the design of the experiment. Mice (male, 18±1 g., CD-1 strain) are pre-weighed, pooled, infected at random intraperitoneally with a 0.5 ml. standardized suspension (LD95 ±5%) of the bacterial organism in 5% gastric mucin and treated at random with single doses of the test agents either at the time of infection or six hours after infecting. The treated groups consist of ten mice per dosage level. Deaths are recorded daily for 14 days and the PD50 (mice are treated at time of infection) and CD50 (mice are treated six hours after infecting) values are calculated by the method of Reed and Muench [Amer. J. Hyg., 27, (1938)].

Escherichia coli (E-2) = assay: In vivo antibacterial synergism (mouse), Escherichia coli (E-2); set-up: species or system Mice (male, CD-1 strain); conditions: p.o., at time of infection, Cpd. dose in combination with SM, 20160 min
Procedure: as §3

[1] = tested on: Staphylococcus aureus CHP; assay: In vivo antibacterial synergism (mouse), Staphylococcus aureus CHP; set-up: species or system Mice (male, CD-1 strain); conditions: p.o., at time of infection, Cpd. dose in combination with SM, 20160 min
Procedure: as §3

CC(C)c1cccc(Cn2ccc3c4c(N)nc(N)nc4ccc32)c1 [Example 5]
MIC (minimal inhibitory concentration) (K. pneumoniae 10031): 0.244 µg/mL (≈ 0.736 µM)
MIC (minimal inhibitory concentration) (P. vulgaris 6896): 62.5 µg/mL (≈ 189 µM)
MIC (minimal inhibitory concentration) (S. aureus Smith): 1.95 µg/mL (≈ 5.88 µM)
MIC (minimal inhibitory concentration) (N. catarrhalis 8193): 3.9 µg/mL (≈ 11.8 µM)
MIC (minimal inhibitory concentration) (E. coli 9637): 7.81 µg/mL (≈ 23.6 µM)
MIC (minimal inhibitory concentration) (S. paratyphi 11737): 31.3 µg/mL (≈ 94.4 µM)
MIC (minimal inhibitory concentration) (S. aureus 53-180): 0.488 µg/mL (≈ 1.47 µM)

COC(=O)c1ccc(Cn2ccc3c4c(N)nc(N)nc4ccc32)cc1 [Example 8]
MIC (S. aureus Smith; Staphylococcus aureus, read-out: MIC (minimal inhibitory concentration)): 31.5 µg/mL (≈ 90.7 µM)

Nc1nc(N)c2c(ccc3c2ccn3-c2ccncc2)n1 [Example 10, 7-(4-Pyridinyl)-7H-pyrrolo-[3,2-f]quinazoline-1,3-diamine]
PD50, SM/Cpd. (Cpd. component) (Escherichia coli (E-3)): 6.25 mg. per kg.
PD50, SM/Cpd. (Cpd. component) (Escherichia coli (E-2)): 1.20 mg. per kg.
PD50, SM/Cpd. (Cpd. component) [1]: 7.28 mg. per kg.
